Data published in PubChem BioAssay AID330 (DTP/NCI, 2004).
Where “and” joins values, the source holds several entries; their conditions need not be identical. Identical values can stand only once. Inconclusive results and toxic doses are left out. Rule for the calls: active = survival T/C of 150% or more; inactive = T/C below 125% in these data.

Test system: P388 leukemia ip, CD2F1 mice, survival T/C
Assay: NCI In Vivo Anticancer Drug Screen. Data for tumor model P388 Leukemia (intraperitoneal) in CD2F1 (CDF1) mice
Details: endpoint: median survival time, higher = longer survival
Summary of the method: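 Mice carrying the transplanted tumor received test compound or vehicle. Survival was recorded in each group, and the value is the treated-group measurement divided by that of the vehicle-treated control group.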

[1] = dose: 60.0 mg/kg/injection, schedule: Q01DX005 (ip), vehicle: saline with Tween-80
[2] = dose: 120.0 mg/kg/injection, schedule: Q01DX005 (ip), vehicle: saline with Tween-80
[3] = dose: 240.0 mg/kg/injection, schedule: Q01DX005 (ip), vehicle: saline with Tween-80

Measured: T/C

O=C1c2ccccc2CCC1Br (stereo not drawn)
inactive: dose: 1.56 mg/kg/injection, schedule: Q01DX009 (ip), vehicle: DMSO 113 % of control | dose: 6.25 mg/kg/injection, schedule: Q01DX009 (ip), vehicle: DMSO 99 % of control and 103 % of control | dose: 12.5 mg/kg/injection, schedule: Q01DX009 (ip), vehicle: DMSO 102 % of control

SCC(CS)=C(CS)CS
inactive: [1] 112 % of control | [2] 113 % of control | [3] 106 % of control

Cc1nc(N)c2ncn(C3OC(CO)C(O)C3O)c2n1 (stereo not drawn)
inactive: dose: 6.25 mg/kg/injection, schedule: Q01DX009 (ip), vehicle: saline 100 % of control | dose: 12.5 mg/kg/injection, schedule: Q01DX009 (ip), vehicle: saline 106 % of control | dose: 25.0 mg/kg/injection, schedule: Q01DX009 (ip), vehicle: saline 109 % of control | dose: 50.0 mg/kg/injection, schedule: Q01DX009 (ip), vehicle: saline 112 % of control

CC(/C=C/c1ccco1)=N\NC(=S)Nc1ccc(Cl)cc1
inactive: dose: 100.0 mg/kg/injection, schedule: Q01DX001 (ip), vehicle: Klucel (hydroxypropylcellulose) (HPC) 91 % of control | dose: 200.0 mg/kg/injection, schedule: Q01DX001 (ip), vehicle: Klucel (hydroxypropylcellulose) (HPC) 100 % of control | dose: 400.0 mg/kg/injection, schedule: Q01DX001 (ip), vehicle: Klucel (hydroxypropylcellulose) (HPC) 100 % of control

CC1OC(O)C(O)C(O)C1O (stereo not drawn)
inactive: dose: 50.0 mg/kg/injection, schedule: Q01DX005 (ip), vehicle: Klucel (hydroxypropylcellulose) (HPC) 101 % of control | dose: 100.0 mg/kg/injection, schedule: Q01DX005 (ip), vehicle: Klucel (hydroxypropylcellulose) (HPC) 93 % of control | dose: 200.0 mg/kg/injection, schedule: Q01DX005 (ip), vehicle: Klucel (hydroxypropylcellulose) (HPC) 104 % of control

Cl/N=N/c1nc(-c2ccccc2)[nH]c1-c1ccccc1
inactive: dose: 50.0 mg/kg/injection, schedule: Q01DX001 (ip), vehicle: suspension in saline 109 % of control | dose: 100.0 mg/kg/injection, schedule: Q01DX001 (ip), vehicle: suspension in saline 101 % of control | dose: 200.0 mg/kg/injection, schedule: Q01DX001 (ip), vehicle: suspension in saline 99 % of control

C1CN2CCN3CCCN4CCN(C1)C2C34 (stereo not drawn)
inactive: dose: 50.0 mg/kg/injection, schedule: Q01DX005 (ip), vehicle: saline 93 % of control | dose: 100.0 mg/kg/injection, schedule: Q01DX005 (ip), vehicle: saline 108 % of control | dose: 200.0 mg/kg/injection, schedule: Q01DX005 (ip), vehicle: saline 111 % of control

CC(C)(C)NCC(O)CCl (stereo not drawn)
inactive: dose: 25.0 mg/kg/injection, schedule: Q01DX009 (ip), vehicle: water 113 % of control | dose: 50.0 mg/kg/injection, schedule: Q01DX009 (ip), vehicle: water 99 % of control | dose: 100.0 mg/kg/injection, schedule: Q01DX009 (ip), vehicle: water 99 % of control | dose: 200.0 mg/kg/injection, schedule: Q01DX009 (ip), vehicle: water 103 % of control

COP(=O)(CC(=O)NCc1cc(C(C)(C)C)c(O)c(C(C)(C)C)c1)OC
inactive: dose: 50.0 mg/kg/injection, schedule: Q01DX009 (ip), vehicle: saline with Tween-80 110 % of control | dose: 100.0 mg/kg/injection, schedule: Q01DX009 (ip), vehicle: saline with Tween-80 103 % of control | dose: 200.0 mg/kg/injection, schedule: Q01DX009 (ip), vehicle: saline with Tween-80 100 % of control

CCOC1N=C(c2ccccc2)c2cc(Cl)ccc2NC1=O (stereo not drawn)
inactive: dose: 50.0 mg/kg/injection, schedule: Q01DX009 (ip), vehicle: Klucel (hydroxypropylcellulose) (HPC) 101 % of control | dose: 100.0 mg/kg/injection, schedule: Q01DX009 (ip), vehicle: Klucel (hydroxypropylcellulose) (HPC) 95 % of control | dose: 200.0 mg/kg/injection, schedule: Q01DX009 (ip), vehicle: Klucel (hydroxypropylcellulose) (HPC) 93 % of control

COc1ccc(/C=N/OC(=S)NC2CCCCC2)cc1OC
inactive: dose: 50.0 mg/kg/injection, schedule: Q01DX005 (ip), vehicle: saline with Tween-80 102 % of control | dose: 100.0 mg/kg/injection, schedule: Q01DX005 (ip), vehicle: saline with Tween-80 94 % of control | dose: 200.0 mg/kg/injection, schedule: Q01DX005 (ip), vehicle: saline with Tween-80 93 % of control

CCO/C(C)=N/n1c(C)nc2[nH]ncc2c1=O
inactive: [1] 99 % of control | [2] 106 % of control | [3] 106 % of control
